In assay [1] the test system is MKN-1 cells. As to the kind of experiment: Cellular phospho-ERK assay, MKN-1 cells (amplified wild-type KRAS). The class given is cell-based. The settings on record: Homo sapiens, read-out: MKN1 pERK IC50. The procedure, abridged: (§1)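 Readout: p-ERK/total ERK ratio measured by Alpha SureFire Ultra multiplex in lysates after 2 h compound exposure (37 °C, 5% CO2). Dosing ran 10 points, 1:3 dilutions, highest final concentration 30 μM. IC50 values derived by four-parameter logistic regression.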

Assay [2] concerns the target KRAS-G12D (Homo sapiens, UniProt P01116, G12D). As to the kind of experiment: SOS-catalyzed nucleotide exchange assay (Procedure A, TR-FRET), KRAS-G12D. The class given is biochemical. The settings on record: nucleotide exchange, read-out: KRAS G12D GNE IC50. Put shortly: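 Signal ratio (520/495 nm, excitation 340 nm) reports Bodipy-GDP retention on biotinylated RAS after SOS-catalyzed exchange with 3 mM GTP. SOS was 40 nM, except 160 nM for G12V. Room-temperature exchange lasted 60 min (90 min for G12V), following a 60 min compound preincubation.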

The target of assay [3] is KRAS-G12V (Homo sapiens, UniProt P01116, G12V). In words: SOS-catalyzed nucleotide exchange assay (Procedure A, TR-FRET), KRAS-G12V. The class given is biochemical. The note with it: nucleotide exchange, read-out: KRAS G12V GNE IC50. The procedure, abridged: (§2)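 TR-FRET readout (520/495 nm) of SOS-driven exchange of Bodipy-GDP for unlabeled GTP (3 mM) on biotinylated, Tb-streptavidin-bound RAS, after 60 min compound preincubation at room temperature. Exchange times and RAS/SOS levels: 60 min for WT (1/40 nM), G12C triple mutant (3/40 nM), NRAS (1.25/40 nM); 90 min for G12V (1.25/160 nM). Four-parameter logistic fits on normalized effect.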

In assay [4] the target is KRAS-WT (Homo sapiens, UniProt P01116). In words: SOS-catalyzed nucleotide exchange assay (Procedure A, TR-FRET), KRAS-WT. It counts as biochemical. The note with it: nucleotide exchange, read-out: KRAS WT GNE IC50. Put shortly:
as §2

Assay [5] has as its system SW620 cells. In words: Cellular phospho-ERK assay, SW620 cells (homozygous KRAS-G12V). It counts as cell-based. The note with it: Homo sapiens, read-out: SW620 pERK IC50. The procedure, abridged: as §1
The subject of assay [6] is AsPC-1 cells. As to the kind of experiment: Cellular phospho-ERK assay, AsPC-1 cells (homozygous KRAS-G12D). The class given is cell-based. The settings on record: Homo sapiens, ASPC1, 2 h, read-out: AsPC1 pERK IC50. Put shortly:
as §1

The target in assay [7] is KRAS-G13D (Homo sapiens, UniProt P01116, G13D). In words: SOS-catalyzed nucleotide exchange assay (Procedure A, TR-FRET), KRAS-G13D. It counts as biochemical. The note with it: nucleotide exchange, Procedure A; read-out: KRAS G13D GNE IC50.
Assay [8] addresses KRAS-G12C (C51S/C80L/C118S) (Homo sapiens, UniProt P01116, C118S/C51S/C80L/G12C). In words: SOS-catalyzed nucleotide exchange assay (Procedure A, TR-FRET), KRAS-G12C. The class given is biochemical. The settings on record: nucleotide exchange, Procedure A; read-out: KRAS G12C GNE IC50. The procedure, abridged:
as §2

In assay [9] the target is HRAS (Homo sapiens, UniProt P01112). As to the kind of experiment: SOS-catalyzed nucleotide exchange assay (Procedure A, TR-FRET), HRAS. The class given is biochemical. The note with it: read-out: HRAS GNE IC50. An excerpt: Procedure for SOS-Catalyzed Nucleotide Exchange Assay for KRAS-WT, G12C/D/V, G13D, HRAS, and NRAS (Procedure A)
Recombinant KRAS-G12C protein used in this assay has an additional triple mutation (C51S/C80L/C118S). Whereas KRAS-WT, G12D/V, G13D, HRAS and NRAS are in context of their WT protein sequence background. Specifically, the SOS-catalyzed nucleotide exchange assay utilizes a preformed TR-FRET complex containing a specific biotinylated RAS protein (KRAS-WT, G12C/V/D, G13D, HRAS, NRAS; described above) with Bodipy-GDP, and Terbium-streptavidin. Compounds are preincubated with this complex for 60 minutes. Subsequently, recombinant human SOS protein and unlabeled GTP are added to initiate the exchange reaction. Small molecule inhibitors stabilize the Bodipy-GDP complex whereas the untreated protein rapidly exchanges Bodipy-GDP for unlabeled GTP resulting in reduced TR-FRET signal.
To assemble the preformed TR-FRET complexes, each biotinylated RAS protein is diluted to 2 μM in an EDTA Buffer (20 mM HEPES pH 7.5, 50 mM sodium chloride, 10 mM EDTA, and 0.01% Tween) and incubated at room temperature for one hour. This mixture is then further diluted to 90 nM in an Assay Buffer (20 mM HEPES pH 7.5, 150 mM sodium chloride, 10 mM magnesium chloride, and 0.005% Tween) containing 15 nM of Terbium-Streptavidin (Invitrogen, catalog #PV3577) and 900 nM of Bodipy-GDP (Invitrogen, catalog #G22360) and incubated at room temperature for six hours. It should be noted that this preformed TR-FRET complex for each of the RAS protein were made ahead of time, aliquoted and stored at −80° C. until the day of the experiment.
Each test compound (10 mM stock in DMSO) is diluted in DMSO to make a final-10-point, 3-fold dilution and is acoustically dispensed into a 384-well assay plate (Corning, catalog #3820) using an Echo 550 (Labcyte). Each well of the assay plate receives 3 μL of a specific 3×RAS preformed TR-FRET complex and 3 μL of Assay Buffer and is incubated at room temperature for 60 minutes (preincubation time). Each well then receives 3 μL of 3×recombinant human SOS protein and GTP (Sigma, G8877) in Assay Buffer and is incubated at room temperature for 30 minutes (G13D), 60 minutes (KRAS WT/G12C/D, H/NRAS) or 90 minutes for G12V. The final reaction in each well of 9 μL consists of 3 mM GTP, specific Ras and SOS proteins in the following concentrations: KRAS-G12C/SOS=3 nM/40 nM, KRAS-WT and G12D/SOS=1 nM/40 nM, KRAS-G12V/SOS=1.25 nM/160 nM. KRAS-G13D/SOS=1.25 nM/0 nM, HRAS and NRAS=1.25 nM/40 nM.
The time-resolved fluorescence resonance energy transfer (TR-FRET) signal is measured on an Envision (PerkinElmer) plate reader: Excitation filter=340 nm; emission 1=495 nm; emission2=520 nm; dichroic mirror=D400/D505; delay time=[…]. The signal of each well is determined as the ratio of the emission at 520 nm to that at 495 nm. Percent effect of each well is determined after normalization to control wells containing DMSO (no effect) or a saturating concentration of inhibitor (max effect). The apparent effect as a function of compound concentration is fit to a four-parameter logistic equation.

Setting [10] is: SW-620, 2 hours compound incubation.

Where two headings read alike, the source gives them in different places.

Chain of KRAS-WT (P01116 with tags, fused parts or gaps isoform P01116-2): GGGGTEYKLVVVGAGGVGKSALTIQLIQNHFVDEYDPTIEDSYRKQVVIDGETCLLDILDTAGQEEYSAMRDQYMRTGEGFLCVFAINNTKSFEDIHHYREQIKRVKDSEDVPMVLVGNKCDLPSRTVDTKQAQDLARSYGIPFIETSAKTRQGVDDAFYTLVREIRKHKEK
Chain of KRAS-G12V (P01116 with tags, fused parts or gaps isoform P01116-2 G12V): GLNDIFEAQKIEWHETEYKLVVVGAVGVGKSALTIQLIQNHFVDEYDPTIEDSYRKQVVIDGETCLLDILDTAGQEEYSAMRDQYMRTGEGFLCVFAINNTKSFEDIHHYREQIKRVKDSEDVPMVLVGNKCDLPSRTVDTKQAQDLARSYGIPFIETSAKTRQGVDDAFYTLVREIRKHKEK
Chain of KRAS-G13D (P01116 with tags, fused parts or gaps isoform P01116-2 G13D): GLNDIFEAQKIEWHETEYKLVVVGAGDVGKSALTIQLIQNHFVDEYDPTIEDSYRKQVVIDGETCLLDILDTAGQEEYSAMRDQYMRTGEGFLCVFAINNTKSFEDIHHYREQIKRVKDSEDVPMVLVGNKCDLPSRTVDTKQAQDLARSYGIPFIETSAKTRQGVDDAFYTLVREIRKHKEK
Chain of KRAS-G12C (C51S/C80L/C118S) (P01116 with tags, fused parts or gaps isoform P01116-2 G12C/C51S/C80L/C118S): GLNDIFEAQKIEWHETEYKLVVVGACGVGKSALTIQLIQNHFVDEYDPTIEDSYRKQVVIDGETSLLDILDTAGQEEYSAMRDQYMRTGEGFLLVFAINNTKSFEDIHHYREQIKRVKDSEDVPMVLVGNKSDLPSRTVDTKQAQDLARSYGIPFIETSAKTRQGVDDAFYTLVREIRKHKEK
Chain of HRAS (P01112 with tags, fused parts or gaps): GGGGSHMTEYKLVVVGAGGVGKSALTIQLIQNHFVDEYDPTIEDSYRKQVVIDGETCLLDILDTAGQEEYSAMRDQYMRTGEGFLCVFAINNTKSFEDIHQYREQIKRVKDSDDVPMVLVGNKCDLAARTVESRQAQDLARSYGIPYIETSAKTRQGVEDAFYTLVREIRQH
Chain of KRAS-G12D (P01116 with tags, fused parts or gaps isoform P01116-2 G12D): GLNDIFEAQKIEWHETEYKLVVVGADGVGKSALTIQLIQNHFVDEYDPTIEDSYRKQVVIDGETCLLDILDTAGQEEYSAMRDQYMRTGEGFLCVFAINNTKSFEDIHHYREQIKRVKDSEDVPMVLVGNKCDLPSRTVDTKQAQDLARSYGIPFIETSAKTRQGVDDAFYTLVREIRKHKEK

As to `C#Cc1c(F)sc2cc3[nH]ncc3c(-c3nccc4c3sc3nc(OC[C@@]56CCCN5C[C@H](F)C6)nc(N5CCOC[C@@](C)(O)C5)c34)c12` [Ex-164], the IC50 in assay [1] (2 hours compound incubation) was determined as 14.6 nM; in assay [2], 1.49 nM; in assay [3], 3.15 nM; in assay [4] it was 2.06 nM; in assay [5] (setting [10]) it was 2.76 nM; in assay [6] (2 hours compound incubation) it was 5.76 nM. Further, the IC50 in assay [7] came out at 6.61 nM; in [8], 35.1 nM; in assay [9], 1890 nM.
For `COC1(C)CN(C[C@@]2(COc3nc(N4CCOC[C@@](C)(O)C4)c4c(n3)sc3c(-c5c(C6(F)CC6)c(Cl)cc6[nH]ncc56)nccc34)CC2(F)F)C1` [Ex-240, (6S)-4-(8-(6-chloro-5-(1-fluorocyclopropyl)-1H-indazol-4-yl)-2-(((R)-2,2-difluoro-1-((3-methoxy-3-methylazetidin-1-yl)methyl)cyclopropyl)metho-xy)pyrido[4′,3′:4,5]thieno[2,3-d]pyrimidin-4-yl)-6-methyl-1,4-oxazepan-6-ol], the IC50 stood at 39.3 nM in assay [1] (2 hours compound incubation); 4.31 nM in assay [2]; 10.4 nM in assay [3]; 20 nM in [4]; 36.1 nM in assay [5] (setting [10]); 58.8 nM in [6] (2 hours compound incubation). Also, the IC50 in assay [7] amounted to 45.8 nM; in assay [8], 19.4 nM; in assay [9], 2220 nM.
`CC1CCc2cc3[nH]ncc3c(-c3nccc4c3sc3nc(OC[C@@]56CCCN5C[C@H](F)C6)nc(N5CCOC[C@@](C)(O)C5)c34)c21` (single isomer, unassigned) [Ex-103]: the IC50 amounted to 30.9 nM in assay [1] (amplified wild-type KRAS, 2 hours); 2.12 nM in assay [2]; 8.72 nM in assay [3]; 6.28 nM in [4]; 19.9 nM in assay [5] (SW-620, KRAS-G12V, 2 hours); 26.3 nM in [6] (KRAS-G12D, 2 hours). Moreover, the IC50 in [7] was 4.51 nM; in assay [8], 18.1 nM; in [9] it was 8010 nM.
For the compound `CCc1c(F)ccc2cc3[nH]ncc3c(-c3nccc4c3sc3nc(OC[C@@]56CCCN5C[C@H](F)C6)nc(N5CCOC[C@@](C)(O)C5)c34)c12` [Ex-167, (6S)-4-(8-(5-ethyl-6-fluoro-1H-benzo[f]indazol-4-yl)-2-(((2R,7aS)-2-fluorotetrahydro-1H-pyrrolizin-7a(5H)-yl)methoxy)pyrido[4′,3′:4,5]thieno[2,3-d]pyrimidin-4-yl)-6-methyl-1,4-oxazepan-6-ol], the IC50 in assay [1] (2 hours compound incubation) is 16.1 nM; in assay [2], 3.28 nM; in [3], 4.82 nM; in assay [4], 5 nM; in assay [5] (setting [10]), 8.1 nM; in assay [6] (2 hours compound incubation), 23.4 nM. Further, the IC50 in assay [7] was 10.1 nM; in assay [8] it was 23.3 nM; in [9], 10300 nM.
With `C#Cc1c(F)ccc2cc3[nH]ncc3c(-c3nccc4c3sc3nc(OC[C@@]56CCCN5C[C@H](F)C6)nc(N5CCOC[C@@](C)(O)C5)c34)c12` [Ex-160, (6S)-4-(8-(5-ethynyl-6-fluoro-1H-benzo[f]indazol-4-yl)-2-(((2R,7aS)-2-fluorotetrahydro-1H-pyrrolizin-7a(5H)-yl)methoxy)pyrido[4′,3′:4,5]thieno[2,3-d]pyrimidin-4-yl)-6-methyl-1,4-oxazepan-6-ol], the IC50 in [1] (2 hours compound incubation) was 19.9 nM; in [2], 2.43 nM; in assay [3], 5.25 nM; in [4], 4.41 nM; in [5] (setting [10]), 7.87 nM; in assay [6] (2 hours compound incubation) it was 18.9 nM. The IC50 amounted to 4.55 nM in assay [7], 53.2 nM in assay [8] and 5540 nM in [9].
For the compound `CN1CCC[C@@]2(COc3nc(N4CCOC[C@@](C)(O)C4)c4c(n3)sc3c(-c5c(C6(F)CC6)c(Cl)cc6[nH]ncc56)nccc34)CCC[C@@H]12` [Ex-268, (6S)-4-(8-(6-chloro-5-(1-fluorocyclopropyl)-1H-indazol-4-yl)-2-(((4aS,7aR)-1-methyloctahydro-4aH-cyclopenta[b]pyridin-4a-yl)methoxy)pyri-do[4′,3′:4,5]thi-eno[2,3-d]pyrimidin-4-yl)-6-methyl-1,4-oxazepan-6-ol], the IC50 came to 30.7 nM in assay [1] (2 hours compound incubation); 2.47 nM in assay [2]; 5.79 nM in [3]; 5.72 nM in assay [4]; 27.6 nM in assay [5] (setting [10]); 56 nM in assay [6] (2 hours compound incubation). For the same compound, the IC50 in [7] was found to be 10.3 nM; in [8] it was 87.5 nM; in assay [9], 4190 nM.
Regarding `C[C@@]1(O)COCCN(c2nc(OC[C@]3(CN4CC5(CCOC5)C4)CC3(F)F)nc3sc4c(-c5c(C6(F)CC6)c(Cl)cc6[nH]ncc56)nccc4c23)C1` [Ex-245, (6S)-4-(2-(((R)-1-((6-oxa-2-azaspiro[3.4]octan-2-yl)methyl)-2,2-difluorocyclopropyl)methoxy)-8-(6-chloro-5-(1-fluorocyclopropyl)-1H-indazol-4-yl)pyrido[4′,3′:4,5]thieno[2,3-d)pyrimidin-4-yl)-6-methyl-1,4-oxazepan-6-ol], the IC50 in assay [1] (2 hours compound incubation) stood at 44 nM; in assay [2] it was 4.22 nM; in [3], 12.9 nM; in assay [4], 18.5 nM; in assay [5] (setting [10]) it was 47.6 nM; in assay [6] (2 hours compound incubation), 70.4 nM. Also, the IC50 was determined as 15.9 nM in assay [7], 19.1 nM in assay [8] and 1290 nM in [9].

Values taken from patent US20260176289A1, “SMALL MOLECULE INHIBITORS OF KRAS PROTEINS” (Merck Sharp & Dohme LLC, priority 2022, published 2026).
